# From patent US20150133397A1, “METHOD OF REDUCING FASTING INSULIN LEVELS IN MTHFR GENE DEFICIENT SUBJECTS WITH NORMAL TO SLIGHTLY ELEVATED HEMOGLOBIN A1C” (priority 2013, published 2015)
# Read-outs that look alike come from different tables or passages of the source.
# Legend:
# [1] = MTHFR677 tt, retested 6 months later
# Excerpt: (§1) The test subject was given a fasting insulin test.
# [2] = MTHFR677 tt, retested 6 months later; remark: listed apart in the source
# Excerpt: The HbA1C test is a common blood test used to diagnose type 1 and type 2 diabetes and then to gauge how well the subject is managing diabetes or the subjects risk of becoming diabetic. The A1C test result reflects the subjects average blood sugar level for the past two to three months. Specifically, the A1C test measures what percentage of the subject's hemoglobin is coated with sugar (glycated). […] According to the American Diabetes Association guidelines a HbA1C of between 4 and 5.6% falls within normal parameters, HbA1C between 5.7 and 6.4% are considered slightly elevated and indicate a prediabetic state as where HbA1C of greater than 6.5% is considered diabetic.
# as §1
compound,measurement,setting,value
CN1c2c([nH]c(N)nc2=O)NC[C@@H]1CNc1ccc(C(=O)N[C@@H](CCC(=O)O)C(=O)O)cc1 [L-methylfolate],fasting insulin level,"[1]; Example 1: person, 3 mgs L-methylfolate with 2 mgs methyl B12 once daily, before treatment 40 μU/ml",9 μU/ml
same,fasting insulin level,"[1]; Example 2: person, 15 mgs L-methylfolate with 2 mgs methyl B12 once daily, before treatment 100 μU/ml",11 μU/ml
same,HbA1C,"[2]; Example 1: person, 3 mgs L-methylfolate with 2 mgs methyl B12 once daily, before treatment 4.9%",4.9%
same,HbA1C,"[2]; Example 2: person, 15 mgs L-methylfolate with 2 mgs methyl B12 once daily, before treatment 5.3%",5.3%
